Assays:
[1] = molecular target: T1, USP5 (Homo sapiens, UniProt P45974); assay: USP5 activity assay; assay type: biochemical; conditions: 400 nM Ub-AMC, 300 pM enzyme, 30 min pre-incubation at 25° C., 60 min at 37° C.; sigmoidal fit; AF: Autofluorescent; read-out: USP 5 (inhibition of cysteine protease activity)
T1 sequence (P45974 1-858): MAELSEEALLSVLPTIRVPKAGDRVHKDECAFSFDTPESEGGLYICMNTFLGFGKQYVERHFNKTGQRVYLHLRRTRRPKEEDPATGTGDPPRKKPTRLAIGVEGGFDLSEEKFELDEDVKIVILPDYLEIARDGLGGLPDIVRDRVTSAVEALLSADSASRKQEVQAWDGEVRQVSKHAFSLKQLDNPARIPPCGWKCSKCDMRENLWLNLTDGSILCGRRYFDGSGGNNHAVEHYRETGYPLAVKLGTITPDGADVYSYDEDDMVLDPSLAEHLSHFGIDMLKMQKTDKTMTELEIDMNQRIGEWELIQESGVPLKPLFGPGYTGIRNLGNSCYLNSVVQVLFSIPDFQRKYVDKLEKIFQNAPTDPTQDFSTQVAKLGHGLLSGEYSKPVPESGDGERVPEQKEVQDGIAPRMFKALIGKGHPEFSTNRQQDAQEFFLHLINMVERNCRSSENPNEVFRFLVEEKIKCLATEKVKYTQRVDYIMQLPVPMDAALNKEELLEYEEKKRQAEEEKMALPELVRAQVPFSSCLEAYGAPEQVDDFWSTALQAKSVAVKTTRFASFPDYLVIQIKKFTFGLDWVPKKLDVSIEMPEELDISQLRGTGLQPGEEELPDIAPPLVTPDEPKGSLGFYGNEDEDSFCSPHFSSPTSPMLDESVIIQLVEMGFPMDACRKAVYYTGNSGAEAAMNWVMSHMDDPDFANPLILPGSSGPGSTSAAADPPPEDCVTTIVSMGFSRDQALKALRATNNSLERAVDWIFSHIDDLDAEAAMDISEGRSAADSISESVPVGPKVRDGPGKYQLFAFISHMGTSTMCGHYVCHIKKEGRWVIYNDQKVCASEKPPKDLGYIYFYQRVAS
Protocol: Bovine Serum Albumin 0.05 mg·ml^−1 pH7.6). Compounds stocks (100 mM) were stored at −20° C. in DMSO. […] Reactions were performed as duplicates in Black LJL 96 well plates (HE microplates; Molecular Devices; 20 μl final reaction volume). The substrate concentration for USP5 was 400 nM Ub-AMC (Boston Biochem). The concentrations of the enzyme (USP5) in specificity assays was 300 pM. The concentrations were determined in order to perform specificity assays under initial velocities at fixed substrate concentration. Compounds were pre-incubated with enzymes for 30 minutes at 25° C. Reactions were initiated by addition of substrate to the plates containing the enzymes (+/− compounds) diluted in assay buffer. Reactions were incubated for 60 minutes at 37° C. Reactions were stopped by adding acetic acid (100 mM final). Readings were performed on a Pherastar Fluorescent Reader (BMG). λ Emission 380 nm; λ Excitation=460 nm. Data (mean values +/− standard deviation) were analyzed as % of control (no compound) and plotted as percentage versus the Log of the compound concentration using GraphPad (Prism). Data were fitted to a sigmoidal model (variable slope).

[2] = molecular target: T2, USP8 (Homo sapiens, UniProt P40818); assay: USP8 activity assay; assay type: biochemical; conditions: 400 nM Ub-AMC, pH8.8, 30 min pre-incubation at 25° C., 60 min at 37° C.; sigmoidal fit; AF: Autofluorescent; read-out: USP 8 (inhibition of cysteine protease activity)
T2 sequence (P40818 1-1118): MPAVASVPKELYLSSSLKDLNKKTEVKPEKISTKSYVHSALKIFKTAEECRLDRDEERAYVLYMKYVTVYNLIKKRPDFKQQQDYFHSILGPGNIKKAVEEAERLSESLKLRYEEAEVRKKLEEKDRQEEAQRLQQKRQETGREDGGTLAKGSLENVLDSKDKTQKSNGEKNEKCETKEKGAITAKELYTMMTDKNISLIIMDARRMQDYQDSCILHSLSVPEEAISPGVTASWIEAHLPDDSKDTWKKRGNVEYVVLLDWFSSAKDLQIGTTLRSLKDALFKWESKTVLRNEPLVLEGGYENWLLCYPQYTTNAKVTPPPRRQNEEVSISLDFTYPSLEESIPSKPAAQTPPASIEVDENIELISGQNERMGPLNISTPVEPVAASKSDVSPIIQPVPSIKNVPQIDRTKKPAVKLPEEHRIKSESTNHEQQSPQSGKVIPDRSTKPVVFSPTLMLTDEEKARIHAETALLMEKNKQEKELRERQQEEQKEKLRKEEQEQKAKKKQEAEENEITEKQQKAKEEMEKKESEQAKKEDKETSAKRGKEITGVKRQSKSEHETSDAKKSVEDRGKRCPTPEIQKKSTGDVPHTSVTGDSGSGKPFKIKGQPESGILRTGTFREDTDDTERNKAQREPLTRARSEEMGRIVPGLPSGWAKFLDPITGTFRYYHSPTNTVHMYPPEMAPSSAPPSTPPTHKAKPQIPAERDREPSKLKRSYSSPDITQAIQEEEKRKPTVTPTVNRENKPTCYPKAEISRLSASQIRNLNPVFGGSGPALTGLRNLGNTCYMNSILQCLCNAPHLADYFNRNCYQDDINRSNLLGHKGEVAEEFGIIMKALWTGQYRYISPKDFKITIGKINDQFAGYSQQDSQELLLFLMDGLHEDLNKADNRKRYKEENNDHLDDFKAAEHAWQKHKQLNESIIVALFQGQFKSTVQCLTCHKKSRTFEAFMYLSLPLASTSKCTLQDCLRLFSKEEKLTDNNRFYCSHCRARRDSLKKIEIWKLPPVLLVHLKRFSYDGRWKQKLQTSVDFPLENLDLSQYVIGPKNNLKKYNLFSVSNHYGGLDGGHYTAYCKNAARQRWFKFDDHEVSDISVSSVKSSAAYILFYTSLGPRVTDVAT

Row | SMILES | IC50 [1] [nM] | IC50 [2] [nM]
1 | COc1ccc2c(c1)C(=O)c1nc(C#N)c(C#N)nc1-2 [Example 17i, 7-Methoxy-9-oxo-9H-indeno[1,2-b]pyrazine-2,3-dicarbonitrile] | 23000 | 2100
2 | N#Cc1nc2c(nc1C#N)-c1ccc(O)cc1C2=O [Example 17j, 7-Hydroxy-9-oxo-9H-indeno[1,2-b]pyrazine-2,3-dicarbonitrile] | > 100000 | > 100000
3 | N#Cc1nc2sc3ccccc3c2nc1C#N [Example 19, benzo[4,5]thieno[2,3-b]pyrazine-2,3-dicarbonitrile] | > 100000 | > 100000
4 | N#Cc1nc2c(nc1C#N)C(=O)c1ccccc1C2=O [Example 20, 5,10-dioxo-5,10-dihydro-benzo[g]quinoxaline-2,3-dicarbonitrile] | > 100000 | > 100000
5 | N#CNc1nc2c(nc1C#N)C(=O)c1ccccc1-2 [Example 21, 2-cyano-9-oxo-9H-indeno[1,2-b]pyrazin-3-yl-cyanamide] | > 100000 | > 100000
6 | CCSc1nc2c(nc1C#N)C(=O)c1ccccc1-2 [Example 23, 3-ethylsulfanyl-9-oxo-9H-indeno[1,2-b]pyrazine-2-carbonitrile] | > 100000 | 46000
7 | N#Cc1nc2c(nc1CC(N)=O)-c1ccccc1C2=O [Example 26, 2-(2-cyano-9-oxo-9H-indeno[1,2-b]pyrazin-3-yl)-acetamide] | 60000 | 11000
8 | N#Cc1nc2c(nc1C#N)-c1ccccc1C2=NOCCOc1ccccc1 [Example 27a, 9-(2-Phenoxy-ethoxyimino)-9H-indeno[1,2-b]pyrazine-2,3-dicarbonitrile] | > 100000 | 2300
9 | N#Cc1nc2c(nc1C#N)-c1ccc(Cl)cc1C2=NOCCOc1ccccc1 [Example 27b, 7-Chloro-9-(2-phenoxy-ethoxyimino)-9H-indeno[1,2-b]pyrazine-2,3-dicarbonitrile] | > 100000 | 11300
10 | C=CCON=C1c2ccc(Cl)cc2-c2nc(C#N)c(C#N)nc21 [Example 27c, 9-Allyloxyimino-6-chloro-9H-indeno[1,2-b]pyrazine-2,3-dicarbonitrile] | 1700 | 201
11 | Cc1c(F)ccc2c1C(=O)c1nc(C#N)c(C#N)nc1-2 [Example 30, 7-Fluoro-8-methyl-9-oxo-9H-indeno[1,2-b]pyrazine-2,3-dicarbonitrile] | 1610 | 316
12 | N#Cc1nc2c(nc1C#N)-c1cc(Cl)c(Cl)cc1C2=O [Example 31, 6,7-dichloro-9-oxo-9H-indeno[1,2-b]pyrazine-2,3-dicarbonitrile] | 329 | 76
13 | CCc1ccc2c(c1)-c1nc(C#N)c(C#N)nc1C2=O [Example 32, 6-ethyl-9-oxo-9H-indeno[1,2-b]pyrazine-2,3-dicarbonitrile] | 1670 | 111
14 | C=CCON=C1c2ccccc2-c2nc(C(N)=O)c(C#N)nc21 [Example 34a, 9-Allyloxyimino-2-cyano-9H-indeno[1,2-b]pyrazine-3-carboxylic acid amide] | 143 | 58
15 | CCON=C1c2ccccc2-c2nc(C(N)=O)c(C#N)nc21 [Example 34b, 2-Cyano-9-ethoxyimino-9H-indeno[1,2-b]pyrazine-3-carboxylic acid amide] | 523 | 63
16 | COCCON=C1c2ccccc2-c2nc(C(N)=O)c(C#N)nc21 [Example 34c, 2-Cyano-9-(2-methoxy-ethoxyimino)-9H-indeno[1,2-b]pyrazine-3-carboxylic acid amide] | 606 | 71
17 | CON=C1c2ccccc2-c2nc(C(N)=O)c(C#N)nc21 [Example 34d, 2-Cyano-9-methoxyimino-9H-indeno[1,2-b]pyrazine-3-carboxylic acid amide] | 113 | 29
18 | N#Cc1nc2c(nc1C(N)=O)-c1ccccc1C2=O [Example 36, 2-cyano-9-oxo-9H-indeno[1,2-b]pyrazine-3-carboxylic acid amide] | 208 | 205
19 | CCOC(=O)CO/N=C1\c2ccccc2-c2nc(C(N)=O)c(C#N)nc21 [Example 37, (3-carbamoyl-2-cyano-indeno[1,2-b]pyrazin-9-ylideneaminooxy)-acetic acid ethyl ester] | 799 | 200
20 | N#Cc1nc2c(nc1C(N)=O)-c1ccccc1/C2=N\OCC(=O)O [Example 38, (3-carbamoyl-2-cyano-indeno[1,2-b]pyrazin-9-ylideneaminooxy)-acetic acid] | 1850 | 272
21 | CCOC(=O)CNC(=O)CO/N=C1\c2ccccc2-c2nc(C(N)=O)c(C#N)nc21 [Example 40, [2-(3-carbamoyl-2-cyano-indeno[1,2-b]pyrazin-9-ylideneaminooxy)-acetylamino]-acetic acid ethyl ester] | 1130 | 155
22 | N#Cc1nc2c(nc1C(N)=O)-c1ccccc1/C2=N\OCC(=O)NCC(=O)O [Example 41, [2-(3-carbamoyl-2-cyano-indeno[1,2-b]pyrazin-9-ylideneaminooxy)-acetylamino]-acetic acid] | 1890 | 118
23 | N#Cc1nc2c(nc1O)-c1ccc(Cl)cc1C2=O [Example 42, 7-chloro-3-hydroxy-9-oxo-9H-indeno[1,2-b]pyrazine-2-carbonitrile] | > 100000 | > 100000
24 | N#Cc1nc2c(nc1C#N)-c1ccc(Cl)cc1C2=NNC(N)=O [Example 43, 9-[(aminocarbonyl)hydrazono]-7-chloro-9H-indeno[1,2-b]pyrazine-2,3-dicarbonitrile] | > 100000 | 814

Source: US8648076B2, “Cysteine protease inhibitors and their therapeutic applications” (Hybrigenics SA, priority 2005, dated 2014)
